Ends that are not written are not given here. Peptide text beside a SMILES is read from it. Bounds are passed on as bounds.

Assay [1] deals with Staphylococcus aureus PCM 2602. Kind of assay: MIC by microdilution method (CLSI M07-A9). The assay is classed as cell-based. The following applies: 24 hours at 37 °C, BHI medium, range 3.125 - 250 µg/ml. The protocol: The antimicrobial properties of the peptide were tested based on Clinical and Laboratory Standards Institute (CLSI) guidelines according to CLSI M07-A9 2012 using the microdilution method. Two bacterial pathogens were used for the study: Gram-positive Staphylococcus aureus PCM 2602 and Gram-negative Pseudomonas aeruginosa PCM 2563.
The bacterial inoculum for the experiment was prepared by direct inoculation of Brain-Heart Infusion medium (BHI) with bacteria from a 24-hour culture on solid medium. The density of the suspension was 0.5 on the McFarland scale. The peptide concentration analysed : 3.125 - 250 µg/ml . Serial dilutions were performed in a 96-well, flat-bottomed, hydrophobic cell culture plate using BHI liquid medium. Then the previously prepared bacterial suspension was added. The final number of pathogens in each well was approximately 5 × 10^5 CFU/ml (Colony Forming Units per millilitre). Microplates were incubated for 24 hours at 37 °C under aerobic conditions. The minimum inhibitory concentration (MIC) for a peptide was defined as the lowest concentration of peptide in a well where no bacterial growth was observed. All experiments were performed in triplicate. Table 3. Minimum microbial growth inhibitory concentration values for peptide ug46 against the bacteria S. aureus PCM 2602 and P. aeruginosa PCM 2563.
For orientation: Broth dilution looks for growth in wells or tubes with falling amounts of substance.

The subject of assay [2] is hFOB human osteoblast cell line. Kind of assay: WST-1 proliferation assay of peptides, indirect method per ISO 10993-5. In kind it is cell-based. Conditions: % of proliferation of control cells. The method, then: Cytotoxicity was tested by an indirect method based on the guidelines in ISO 10993- 5 on the hFOB human osteoblast cell line (ATCC) using the LDH assay (Roche). The results presented were averaged from two technical repeats and presented as % relative to control cells treated with 1% Triton X- 100 solution. proliferation was tested by an indirect method based on the guidelines in ISO 10993- 5 on the hFOB human osteoblast cell line (ATCC) using the WST-1 assay (Abcam). The results shown were averaged from two technical repeats and presented as % in relation to control cells cultured without added peptides.
Proliferation and cytotoxicity data were analysed and visualised using GraphPad Prism 8 software (GraphPad Software, USA). Statistical analysis was performed using the Kruskal- Wallis test (p = 0.05). In the next step, the Benjamini, Krieger and Yekutielli multiple comparisons test was performed to control the false discovery rate (p = 0.05). Comparisons were made between results obtained for individual peptide concentrations.
A general note: Tetrazolium assays rely on reduction of a dye to a coloured formazan, in cell work by metabolically active cells.

In the case of `CC[C@H](C)[C@H](NC(=O)CNC(=O)[C@H](C)NC(=O)[C@H](CCC(N)=O)NC(C)=O)C(=O)N[C@H](C(=O)N[C@H](C(=O)N1CCC[C@H]1C(=O)N[C@@H](CC(C)C)C(=O)NCC(=O)N[C@@H](CC(C)C)C(=O)NCC(=O)N[C@@H](CC(C)C)C(=O)N[C@@H](CC(C)C)C(=O)N[C@@H](CCCCN)C(=O)N[C@@H](CCCNC(=N)N)C(=O)N[C@H](C(=O)N[C@@H](CCCCN)C(=O)N[C@H](C(=O)N[C@@H](CC(C)C)C(=O)N[C@@H](CC(C)C)C(N)=O)[C@@H](C)O)[C@@H](C)CC)C(C)C)C(C)C` [ug46] (Ac-QAGIVVPLGLGLLKRIKTLL-NH2), in assay [1], the “Minimum inhibitory concentration of microorganisms (MIC) S. aureus PCM 2602” value came out at 100 µg/mL.
“CPLGLYGFGG [ug4, engineered pro-regenerative peptide]”: the proliferation is listed as at least 70% in assay [2] (any ug1/ug4 peptide concentration (none lower)) and “above 100%” in assay [2] (most concentrations of ug1/ug4 peptide).

For the origin of these results see patent EP4371586B1, “MULTIFUNCTIONAL CHITOSAN COMPOSITES FOR BONE DEFECT FILLING AND BONE TISSUE REGENERATION AND METHODS FOR OBTAINING THEM” (Siec Badawcza Lukasiewicz - Instytut Ceramiki i Materialow …, priority 2022, dated 2024).
